Assay results published in patent EP0590919A1, “Therapeutic agents for parkinson's disease” (KYOWA HAKKO KOGYO CO., LTD., priority 1992, dated 1994).

Legend:
[1] = system: dd-strain male mice; assay: Acute toxicity test (minimum lethal dose, oral); format: in vivo; conditions: oral administration, three mice per group, mortality seven days after administration
Method: Test compounds were orally administered to groups of dd-strain male mice weighing 20 ± 1 g, each group consisting of three mice. Seven days after the administration, minimum lethal dose (MLD) of each compound was determined by observing the mortality.

[2] = target: T1, A₂ receptor (Rattus norvegicus, UniProt P30543); assay: Adenosine A₂ receptor binding test (³H-NECA binding); conditions: ³H-NECA binding, rat corpus striatum, read-out: Inhibition (%) A₂ Receptor; for inhibition at 100 µM: 10⁻⁴M; for inhibition at 10 µM: 10⁻⁵M; for inhibition at 1 µM: 10⁻⁶M; for inhibition at 0.1 µM: 10⁻⁷M
T1 construct: from tissue; host or cells: rat corpus striatum membrane preparation
Method: The similar procedure as in the above-described adenosine A₁ receptor binding test was repeated using rat corpus striatum to obtain the final precipitate of the tissue thereof. The precipitate was suspended in 50 mM Tris HCl buffer containing 10 mM magnesium chloride and 0.02 unit/mg tissue of adenosine deaminase (manufactured by Sigma Co.) to give a tissue concentration of 5 mg (wet weight)/ml.
The mixture solution was allowed to stand at 25°C for 120 minutes and then treated in the same manner as in the adenosine A₁ receptor binding test to determine the radioactivity bound to the A₂ receptors.
The inhibition rate of the test compound against the binding of A₂ receptor (³H-NECA binding) was calculated by the following equation: [formula] [Notes] • 1.

T1 sequence (P30543 whole entry): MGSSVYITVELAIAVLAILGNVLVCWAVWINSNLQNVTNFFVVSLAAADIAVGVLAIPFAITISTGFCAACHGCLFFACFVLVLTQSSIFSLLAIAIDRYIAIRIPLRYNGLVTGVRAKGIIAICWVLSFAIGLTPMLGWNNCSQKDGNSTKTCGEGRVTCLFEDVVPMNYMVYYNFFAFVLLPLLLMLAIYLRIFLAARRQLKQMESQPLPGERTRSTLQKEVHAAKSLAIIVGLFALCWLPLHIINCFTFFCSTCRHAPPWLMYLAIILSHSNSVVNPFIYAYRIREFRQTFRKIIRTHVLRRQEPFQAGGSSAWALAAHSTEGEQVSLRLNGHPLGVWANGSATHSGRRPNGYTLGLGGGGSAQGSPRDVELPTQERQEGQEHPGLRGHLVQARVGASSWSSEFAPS

| Structure (SMILES) | MLD [1] [mg/kg] | other results |
| --- | --- | --- |
| CCn1c(=O)c2[nH]c(/C=C/c3cccc(OC)c3OC)nc2n(CC)c1=O [Compound 3, (E)-8-(2,3-Dimethoxystyryl)-1,3-diethylxanthine] | > 300 | – |
| CCn1c(=O)c2[nH]c(/C=C/c3ccc(OC)cc3OC)nc2n(CC)c1=O [Compound 5, (E)-8-(2,4-Dimethoxystyryl)-1,3-diethylxanthine] | > 100 | – |
| CCn1c(=O)c2[nH]c(/C=C/c3cc(C)c(OC)cc3C)nc2n(CC)c1=O [Compound 11, (E)-1,3-Diethyl-8-(4-methoxy-2,5-dimethylstyryl)xanthine] | > 300 | – |
| COc1cccc(/C=C/c2nc3c(=O)n(C)c(=O)n(C)c3[nH]2)c1OC [Compound 25, (E)-8-(2,3-Dimethoxystyryl)theophylline] | > 100 | inhibition at 100 µM [2]: 70%; inhibition at 10 µM [2]: 76% |
| COc1cccc(/C=C/c2nc3c(c(=O)n(C)c(=O)n3C)n2C)c1OC [Compound 26, (E)-8-(2,3-Dimethoxystyryl)caffeine] | > 300 | inhibition at 100 µM [2]: 79%; inhibition at 10 µM [2]: 75%; inhibition at 1 µM [2]: 59%; inhibition at 0.1 µM [2]: 27% |
| COc1ccc(/C=C/c2nc3c([nH]2)c(=O)n(C)c(=O)n3C)c(OC)c1 [Compound 27, (E)-8-(2,4-Dimethoxystyryl)theophylline] | > 100 | inhibition at 100 µM [2]: 90%; inhibition at 10 µM [2]: 89% |
| COc1ccc(/C=C/c2nc3c(c(=O)n(C)c(=O)n3C)n2C)c(OC)c1 [Compound 28, (E)-8-(2,4-Dimethoxystyryl)caffeine] | > 300 | inhibition at 100 µM [2]: 99%; inhibition at 10 µM [2]: 86%; inhibition at 1 µM [2]: 80%; inhibition at 0.1 µM [2]: 46% |
| COc1cc(C)c(/C=C/c2nc3c([nH]2)c(=O)n(C)c(=O)n3C)cc1C [Compound 29, (E)-8-(4-Methoxy-2,5-dimethylstyryl)theophylline] | > 100 | – |
| COc1cc(C)c(/C=C/c2nc3c(c(=O)n(C)c(=O)n3C)n2C)cc1C [Compound 30, (E)-8-(4-Methoxy-2,5-dimethylstyryl)caffeine] | > 100 | – |
| CCn1c(=O)c2[nH]c(/C=C/c3cc(C)ccc3C)nc2n(CC)c1=O [Compound 33, (E)-8-(2,5-Dimethylstyryl)-1,3-diethylxanthine] | > 300 | inhibition at 100 µM [2]: 92%; inhibition at 10 µM [2]: 93% |
| CCn1c(=O)c2[nH]c(/C=C/c3ccccc3OC)nc2n(CC)c1=O [Compound 45, (E)-1,3-Diethyl-8-(2-methoxystyryl)xanthine] | > 100 | – |
| CCn1c(=O)c2c(nc(/C=C/c3ccccc3OC)n2C)n(CC)c1=O [Compound 46, (E)-1,3-Diethyl-8-(2-methoxystyryl)-7-methylxanthine] | > 100 | – |
| CCn1c(=O)c2[nH]c(/C=C/c3ccc(F)c(F)c3)nc2n(CC)c1=O [Compound 53, (E)-8-(3,4-Difluorostyryl)-1,3-diethylxanthine] | > 300 | – |
| COc1ccc(/C=C/c2nc3c([nH]2)c(=O)n(C)c(=O)n3C)cc1Br [Compound 57, (E)-8-(3-Bromo-4-methoxystyryl)theophylline] | > 100 | – |
| CCn1c(=O)c2[nH]c(/C=C/c3cc(OC)c(OC)cc3Br)nc2n(CC)c1=O [Compound 59, (E)-8-(2-Bromo-4,5-dimethoxystyryl)-1,3-diethylxanthine] | > 100 | – |
| CCn1c(=O)c2[nH]c(/C=C/c3cc(OC)c(OC)cc3[N+](=O)[O-])nc2n(CC)c1=O [Compound 61, (E)-8-(4,5-Dimethoxy-2-nitrostyryl)-1,3-diethylxanthine] | > 100 | – |
| CCn1c(=O)c2c(nc(/C=C/c3cc(OC)c(OC)cc3[N+](=O)[O-])n2C)n(CC)c1=O [Compound 62, (E)-8-(4,5-Dimethoxy-2-nitrostyryl)-1,3-diethyl-7-methylxanthine] | > 300 | – |

| Structure (SMILES) | MLD [1] [mg/kg] | other results |
| --- | --- | --- |
| CCn1c(=O)c2[nH]c(/C=C/c3cccc(Cl)c3)nc2n(CC)c1=O [Compound 69, (E)-8-(3-Chlorostyryl)-1,3-diethylxanthine] | > 100 | – |
| CCn1c(=O)c2[nH]c(/C(C)=C/c3ccccc3)nc2n(CC)c1=O [Compound 71, (E)-1,3-Diethyl-8-(α-methylstyryl)xanthine] | > 100 | – |
| CCn1c(=O)c2c(nc(/C(C)=C/c3ccccc3)n2C)n(CC)c1=O [Compound 72, (E)-1,3-Diethyl-7-methyl-8-(α-methylstyryl)xanthine] | > 300 | – |
| CCn1c(=O)c2[nH]c(/C=C/c3ccc(C(F)(F)F)cc3)nc2n(CC)c1=O [Compound 73, (E)-1,3-Diethyl-8-(4-trifluoromethylstyryl)xanthine] | > 100 | – |
| CCn1c(=O)c2[nH]c(/C(F)=C\c3ccccc3)nc2n(CC)c1=O [Compound 75, (E)-1,3-Diethyl-8-(α-fluorostyryl)xanthine] | > 100 | – |
| CCn1c(=O)c2[nH]c(/C=C/c3cc(C(F)(F)F)cc(C(F)(F)F)c3)nc2n(CC)c1=O [Compound 85, (E)-8-[3,5-Bis(trifluoromethyl)styryl]-1,3-diethylxanthine] | > 100 | – |
| CCn1c(=O)c2c(nc(/C=C/c3cc(F)cc(F)c3)n2C)n(CC)c1=O [Compound 88, (E)-8-(3,5-Difluorostyryl)-1,3-diethyl-7-methylxanthine] | > 100 | – |
| CCn1c(=O)c2[nH]c(/C=C/c3ccc(-c4ccccc4)cc3)nc2n(CC)c1=O [Compound 100, (E)-1,3-Diethyl-8-(4-phenylstyryl)xanthine] | > 100 | – |
| CCn1c(=O)c2[nH]c(/C=C/c3ccc(F)c(Cl)c3)nc2n(CC)c1=O [Compound 104, (E)-8-(3-Chloro-4-fluorostyryl)-1,3-diethylxanthine] | > 100 | – |
| CCn1c(=O)c2c(nc(/C=C/c3ccc(OC)c(O)c3)n2C)n(CC)c1=O [Compound 111, (E)-1,3-Diethyl-8-(3-hydroxy-4-methoxystyryl)-7-methylxanthine] | > 100 | – |
| CCn1c(=O)c2c(nc(/C=C/c3ccc(OCCCCN)cc3)n2C)n(CC)c1=O [Compound 116, (E)-8-[4-(4-Aminobutoxy)styryl]-1,3-diethyl-7-methylxanthine] | > 100 | – |
| CCOC(=O)COc1ccc(/C=C/c2nc3c(c(=O)n(CC)c(=O)n3CC)n2C)cc1 [Compound 117, (E)-8-(4-Ethoxycarbonylmethoxystyryl)-1,3-diethyl-7-methylxanthine] | > 100 | – |
| CCn1c(=O)c2c(nc(/C=C/c3ccc(OCC(=O)O)cc3)n2C)n(CC)c1=O [Compound 118, (E)-8-(4-Carboxymethoxystyryl)-1,3-diethyl-7-methylxanthine] | > 100 | – |
| CCn1c(=O)c2[nH]c(/C=C/c3cccc(Oc4ccccc4)c3)nc2n(CC)c1=O [Compound 119, (E)-1,3-Diethyl-8-(3-phenoxystyryl)xanthine] | > 100 | – |
| CCn1c(=O)c2[nH]c(/C=C/c3ccc(O)cc3)nc2n(CC)c1=O [Compound 121, (E)-1,3-Diethyl-8-(4-hydroxystyryl)xanthine] | > 100 | – |
| CCn1c(=O)c2c(nc(/C=C/c3ccc(O)c(C)c3C)n2C)n(CC)c1=O [Compound 122, (E)-1,3-Diethyl-8-(4-hydroxy-2,3-dimethylstyryl)-7-methylxanthine] | > 100 | – |
